Measured values as given in patent US20250333397A1 (REMIX THERAPEUTICS INC., priority 2021, published 2025).
Where two headings read alike, the source gives them in different places.

What was measured:
Type in all cases: cell-based, human
[1] = test system: MYB mRNA; test: RT-qPCR splicing assay, MYB canonical (CJ) and alternative (AJ) junction mRNA; conditions: Homo sapiens; for AC50: read-out: MYB AJ (AC50, increase in AJ mRNA)
Summary of the method: (§1)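 Junction-specific RT-qPCR read the canonical exon-exon junction and the compound-induced alternative-exon junction, normalized to GAPDH, GUSB or PPIA and then to DMSO (2^(-ΔΔCt)). Input was lysate from A673 or K562 cells exposed for 24 h to compound up to 10 uM.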

[2] = test system: Target C mRNA; test: RT-qPCR splicing assay panel, Target C canonical junction (CJ) mRNA; conditions: Homo sapiens, canonical junction (CJ) mRNA, RT-qPCR panel, Table 4A; read-out: Target C, decrease in CJ mRNA levels, IC50
Summary of the method: as §1

[3] = test system: HTT mRNA; test: RT-qPCR splicing assay, HTT canonical (CJ) and alternative (AJ) junction mRNA; conditions: Homo sapiens; for AC50: read-out: HTT AJ (AC50, increase in AJ mRNA)
Summary of the method: as §1

[4] = test system: SMN2 mRNA; test: RT-qPCR splicing assay panel, SMN2 canonical junction (CJ) mRNA; conditions: Homo sapiens, canonical junction (CJ) mRNA, RT-qPCR panel, Table 4A; read-out: SMN2, decrease in CJ mRNA levels, IC50
Summary of the method: as §1

[5] = 24 h, Table 3A, A673 or K562 cells, 24 h treatment
[6] = 24 h, Table 3A, A673 or K562 cells, 24 h treatment, read-out: MYB CJ (IC50, decrease in CJ mRNA)
[7] = canonical junction (CJ) mRNA, RT-qPCR panel, Table 4A, read-out: MYB, decrease in CJ mRNA levels, IC50
[8] = 24 h, Table 3A, A673 or K562 cells, 24 h treatment, read-out: HTT CJ (IC50, decrease in CJ mRNA)
[9] = canonical junction (CJ) mRNA, RT-qPCR panel, Table 4A, read-out: HTT, decrease in CJ mRNA levels, IC50

SMILES	AC50 [1, 5] [nM]	IC50 [1, 6] [nM]	IC50 [1, 7] [nM]	IC50 [2] [nM]	AC50 [3, 5] [nM]	IC50 [3, 8] [nM]	IC50 [3, 9] [nM]	IC50 [4] [nM]
COc1cc(-c2cc(O)c(-c3ccc(N4CC[C@H](NC(C)(C)C)C4)nn3)cc2F)cnn1 [Compound 211, 2-{6-[(3S)-3-(tert-butylamino)pyrrolidin-1-yl]pyridazin-3-yl}-4-fluoro-5-(6-methoxypyridazin-4-yl)phenol]	1000 to 10000	1000 to 10000	1000 to 10000	100 to 1000	100 to 1000	100 to 1000	100 to 1000	< 100
COc1cc(-c2ccc(-c3ccc(N4CCC(NC(C)(C)C)C4=O)nn3)c(O)c2)cnn1 (centres unmarked) [Compound 219, 3-(tert-butylamino)-1-{6-[2-hydroxy-4-(6-methoxypyridazin-4-yl)phenyl]pyridazin-3-yl}pyrrolidin-2-one]	1000 to 10000	1000 to 10000	1000 to 10000	1000 to 10000	1000 to 10000	1000 to 10000	1000 to 10000	1000 to 10000
CCc1cc(-c2ccc(-c3ccc(N4CC[C@@H](NC5CCC5)C4)nn3)c(O)c2)cnn1 [Compound 277, 2-{6-[(3R)-3-(cyclobutylamino)pyrrolidin-1-yl]pyridazin-3-yl}-5-(6-ethylpyridazin-4-yl)phenol]	> 10000	1000 to 10000	1000 to 10000	> 10000	> 10000	1000 to 10000	1000 to 10000	1000 to 10000
COc1cc(-c2cc(O)c(-c3ccc(N4CC[C@@H](NC5CC5)C4)nn3)cc2F)cnn1 [Compound 213, 2-{6-[(3R)-3-(cyclopropylamino)pyrrolidin-1-yl]pyridazin-3-yl}-4-fluoro-5-(6-methoxypyridazin-4-yl)phenol]	1000 to 10000	100 to 1000	100 to 1000	1000 to 10000	100 to 1000	100 to 1000	100 to 1000	< 100
Cc1ncc(-c2cc(O)c(-c3ccc(OC4CC(C)(C)NC(C)(C)C4)nn3)cc2F)s1 [Compound 385]	100 to 1000	100 to 1000	100 to 1000	100 to 1000	< 100	< 100	< 100	< 100
COCCc1cc(-c2ccc(-c3ccc(N4CCC(NC5CCC5)C4)nn3)c(O)c2)cnn1 (centres unmarked) [Compound 430]	> 10000	> 10000	> 10000	> 10000	> 10000	> 10000	> 10000	> 10000
Cc1nnc(-c2ccc(-c3ccc(N4CC[C@@H](NCC5CC5)C4)nn3)c(O)c2)s1 [Compound 415]	100 to 1000	100 to 1000	100 to 1000	100 to 1000	< 100	< 100	< 100	< 100
Cc1ncc(-c2cc(O)c(-c3ccc(N4CCC(CNC5CCC5)C4)nn3)cc2F)s1 (centres unmarked) [Compound 342, 2-(6-{3-[(cyclobutylamino)methyl]pyrrolidin-1-yl}pyridazin-3-yl)-4-fluoro-5-(2-methyl-1,3-thiazol-5-yl)phenol]	1000 to 10000	> 10000	> 10000	< 100	< 100	< 100	< 100	< 100
COc1cc(-c2ccc(-c3cc(C#N)c(OC4CC(C)(C)NC(C)(C)C4)nn3)c(O)c2)ncn1 [Compound 425]	1000 to 10000	1000 to 10000	1000 to 10000	1000 to 10000	1000 to 10000	100 to 1000	100 to 1000	100 to 1000
COc1cc(-c2ccc(-c3ccc(N4CC[C@H](NC5(C)CCC5)C4)nn3)c(O)c2)cnn1 [Compound 289, (S)-5-(6-methoxypyridazin-4-yl)-2-(6-(3-((1-methylcyclobutyl)amino)pyrrolidin-1-yl)pyridazin-3-yl)phenol]	100 to 1000	100 to 1000	100 to 1000	< 100	100 to 1000	< 100	< 100	< 100
Cc1ncc(-c2ccc(-c3ccc(OC4CC(C)(C)NC(C)(C)C4)nn3)c(O)c2)s1 [Compound 329]	100 to 1000	100 to 1000	100 to 1000	< 100	< 100	< 100	< 100	< 100
Cc1nc(C#N)c(-c2cc(O)c(-c3ccc(N4CC[C@H](NC5CCC5)C4)nn3)cc2F)s1 [Compound 429]	1000 to 10000	1000 to 10000	1000 to 10000	100 to 1000	100 to 1000	100 to 1000	100 to 1000	100 to 1000
Cc1ncc(-c2cc(O)c(-c3ccc(N4CC[C@H](N[C@H](C)C5CC5)C4)nn3)cc2F)s1 [Compound 372]	< 100	< 100	< 100	< 100	< 100	< 100	< 100	< 100
COc1cc(-c2ccc(-c3ccc(N4CCC(C)(NC5CCC5)C4)nn3)c(O)c2)cnn1 (centres unmarked) [Compound 275]	100 to 1000	100 to 1000	100 to 1000	< 100	< 100	< 100	< 100	< 100
COc1cc(-c2ccc(-c3ccc(N4CC[C@@H](N[C@H]5C[C@H](F)C5)C4)nn3)c(O)c2)ncn1 [Compound 427]	1000 to 10000	1000 to 10000	1000 to 10000	1000 to 10000	100 to 1000	100 to 1000	100 to 1000	100 to 1000
Cc1nc(C#N)c(-c2cc(O)c(-c3ccc(N4CC[C@@H](NC5CCC5)C4)nn3)cc2F)s1 [Compound 428]	100 to 1000	100 to 1000	100 to 1000	100 to 1000	100 to 1000	100 to 1000	100 to 1000	< 100
Cc1ncc(-c2cc(O)c(-c3ccc(N4CCC(CNC(C)(C)C)C4)nn3)cc2F)s1 (centres unmarked) [Compound 333]	> 10000	> 10000	> 10000	> 10000	> 10000	1000 to 10000	1000 to 10000	1000 to 10000
Oc1cc(-c2cnc(C(F)(F)F)s2)c(F)cc1-c1ccc(N2CCC(NC3CCC3)C2)nn1 (centres unmarked) [Compound 390]	> 10000	> 10000	> 10000	> 10000	> 10000	> 10000	> 10000	1000 to 10000
COc1cc(-c2ccc(-c3ccc(N4CC[C@H](NC5CC5)C4)nn3)c(O)c2)cnn1 [Compound 215, 2-{6-[(3S)-3-(cyclopropylamino)pyrrolidin-1-yl]pyridazin-3-yl}-5-(6-methoxypyridazin-4-yl)phenol]	100 to 1000	100 to 1000	100 to 1000	100 to 1000	< 100	< 100	< 100	< 100
